From PMC6510909 (Investigational New Drugs, 2018)
Where two headings read alike, the source gives them in different places.

Tested on: patients with previously untreated metastatic PDAC
Conditions: for Overall safety and tolerability: in combination with nab-P + G, up to 200 mg twice daily
Source text: Patients were ≥ 18 years of age with previously untreated metastatic PDAC (measurable per Response Evaluation Criteria in Solid Tumors [RECIST] v 1.1); and an Eastern Cooperative Oncology Group (ECOG) performance status ≤1 and adequate hematologic, renal, and hepatic function. […] All patients provided written informed consent prior to enrollment.
Screening occurred within 21 days before the first MMB dose and included medical history and prior/concomitant medication review, physical exam and assessments of vital signs, ECOG performance status, pregnancy test (females), laboratory assessment, adverse event (AE) assessment, and staging CT or MRI. MMB was given orally once or twice daily as per the assigned dosing cohort: Cohort 1–100 mg MMB once daily; Cohort 2–150 mg MMB once daily; Cohort 3–200 mg MMB once daily; Cohort 4–150 mg MMB twice daily; and Cohort 5–200 mg MMB twice daily. […] Each dose cohort consisted of 3 patients, unless a dose-limiting toxicity (DLT) was experienced during the first 28 days of treatment. If one DLT was experienced, 3 additional patients were enrolled in the dose cohort. If a second DLT was experienced in the same cohort, MTD was considered to be exceeded. Dose escalation continued from Dose Level 2 to 3 to 4 to 5 if no DLT occurred in 3 evaluable subjects or < 2 DLTs occurred in 6 evaluable patients within each dose level.
Primary endpoint was incidence of DLT(s) based on the Common Terminology Criteria for Adverse Events (CTCAE) version 4.03. Secondary endpoints were overall survival (OS) (defined as the time interval from the first dose of MMB to death from any cause; patients lost to follow-up or who survived until the end of study were censored at the last date that they were known to be alive), progression-free survival (PFS) (defined as the time interval from the first dose of MMB to the earlier of the first documentation of definitive disease progression or death from any cause), overall response rate (ORR) (proportion of patients who achieved a complete or partial response [CR or PR, respectively] during MMB therapy), and duration of response (time from CR or PR to definitive disease progression or death from any cause).
Planned enrollment was up to 30 patients based on the standard 3 + 3 design. The efficacy analyses were conducted in all enrolled patients. Safety analyses were conducted in all enrolled patients who received ≥1 dose of study treatment. Descriptive summary statistics were provided for patient characteristics and safety variables. Kaplan-Meier estimates were used for OS, PFS, duration of response, and their 95% confidence intervals (CIs). The ORR was summarized for each dose level cohort with corresponding 2-sided 95% exact CIs based on the Clopper-Pearson method.

[1] = all cohorts, MMB + nab-P + G, n = 25
[2] = all cohorts, MMB + nab-P + G, AE consistent with JAK1/2 inhibition

Structure (SMILES): N#CCNC(=O)c1ccc(-c2ccnc(Nc3ccc(N4CCOCC4)cc3)n2)cc1 [MMB, momelotinib]
- Dose-limiting toxicity (Grade 3 diarrhea), patients (100 mg MMB once daily + nab-P + G): 1 patient
- Dose-limiting toxicity (Grade 3 diarrhea), patients (200 mg MMB once daily + nab-P + G): 1 patient
- Maximum tolerated dose (MTD) (MMB up to 200 mg twice daily + nab-P + G): not reached
- Deaths due to TEAEs [1]: no deaths
- Grade 3 MMB-related AE deep vein thrombosis [1]: 4.0%
- Grade 3 MMB-related AE dehydration [1]: 4.0%
- Grade 3 MMB-related AE diarrhea [1]: 12.0%
- Grade 3 MMB-related AE fatigue [1]: 4.0%
- Grade 3 MMB-related AE febrile neutropenia [1]: 4.0%
- Grade 3 MMB-related AE generalized edema [1]: 4.0%
- Grade 3 MMB-related AE hypertension [1]: 4.0%
- Grade 3 MMB-related AE malaise [1]: 4.0%
- Grade 3 MMB-related AE nephrolithiasis [1]: 4.0%
- Grade 3 MMB-related AE peripheral edema [1]: 4.0%
- Grade 3 MMB-related AE peripheral sensory motor neuropathy [1]: 8.0%
- Grade 3 MMB-related AE polyneuropathy [1]: 4.0%
- Grade 3 MMB-related AE respiratory distress [1]: 4.0%
- Grade 3 MMB-related AE thrombocytopenia [1]: 8.0%
- Grade 3 MMB-related AE tremor [1]: 4.0%
- Grade 3 or 4 AEs considered related to MMB [1]: 44%
- Grade 3 or 4 TEAEs, patients [1]: 88%
- Grade 3 or 4 neutropenia, patients [1]: 32%
- Grade 4 MMB-related event embolic stroke [1]: 4.0%
- Grade 4 MMB-related event increased blood uric acid [1]: 4.0%
- Grade 4 MMB-related event neutropenia [1]: 4.0%
- Neutropenia Grade 3, patients [1]: 16%
- Neutropenia Grade 4, patients [1]: 16%
- Patients with at least one treatment-emergent AE (TEAE) [1]: All patients
- Peripheral neuropathy attributed by investigators as related to the drug, patients [1]: 16%
- Peripheral neuropathy leading to discontinuation of MMB, patients [1]: 8%
- Peripheral sensory neuropathy attributed by investigators as related to the drug, patients [1]: 24%
- Pneumonia Grade 3, patients [1]: 24%
- SAEs considered related to MMB, patients [1]: 24%
- Serious AEs (SAEs), patients [1]: 72%
- TEAE abdominal pain, patients [1]: 44%
- TEAE alopecia, patients [1]: 40%
- TEAE anemia, patients [1]: 68%
- TEAE constipation, patients [1]: 52%
- TEAE decreased appetite, patients [1]: 40%
- TEAE diarrhea, patients [1]: 64%
- TEAE dysgeusia, patients [1]: 40%
- TEAE fatigue, patients [1]: 80%
- TEAE hypertension, patients [1]: 36%
- TEAE nausea, patients [1]: 76%
- TEAE peripheral edema, patients [1]: 48%
- TEAE peripheral neuropathy, patients [1]: 36%
- TEAE peripheral sensory neuropathy, patients [1]: 36%
- TEAE pyrexia, patients [1]: 56%
- TEAE vomiting, patients [1]: 52%
- Peripheral neuropathy, predefined AE of interest, patients (all cohorts, MMB + nab-P + G, n = 25, higher incidence at the two highest dose levels): 60%
- AE neutropenia, patients [2]: 32%
- AE thrombocytopenia, patients [2]: 20%
- Overall safety and tolerability: safe and well tolerated
- Overall safety and tolerability (listed as Momelotinib): well tolerated
- Maximum administered dose (MAD) (twice daily, + nab-P + G): 200 mg
